The source of these data is patent publication EP1590332B1, “A PROCESS FOR THE SYNTHESIS OF BISBENZIMIDAZOLES AND THEIR DERIVATIVES” (University of Delhi, priority 2003, dated 2004).

The term Tm denotes the temperature at which the thermal transition is half complete.

Read-outs that look alike come from different tables or passages of the source.

One data set has as its system Calf thymus DNA. In words: Thermal denaturation / spectroscopic studies of ligand-DNA complex in presence and absence of radiation. Type of data set: binding. The protocol:
(§1) The cytotoxic effect of DMA and TBZ on exponentially growing tumor cells BMG-1 was studied as a function of time. Cells were treated for 1 h with the ligands and allowed to grow for 24, 48 and 72 hours. The MTT assay was performed at the specified time points. […] There seemed to be no effect on the metabolic status of the treated cells. However, strikingly the metabolic activity of the treated cells seemed to be enhanced as compared to the untreated control cells. To further support our results we have performed cell survival assay at 0.1uM, 10uM and 100uM concentration of drug having control as untreated cell. These experiments were done thrice in six sets. Exponentially growing cells were used in these experiments and cell survival was studied using Macrocolony assay. The plating efficiency was nearly 77%. […] The increase in cell number as a function of time for the control as well as the treated cells remained same. The radioprotective effect of the newly synthesized ligands were studied spectroscopically as well as in human brain glioma cell line BMG-1. The spectroscopic studies done included UV-Vis sepctroscopy, Fluorescence spectroscopy, Anisotropy measurements and Lifetime measurements and Thermal denaturation studies. Calf thymus DNA was chosen as the DNA material and ligands were incubated with the DNA and irradiated at different doses of radiation. […] At the cellular level also, the ligands were incubated with the cells and cell survival assay was performed to study the radioprotective effect of the new ligands in comparison to the parent molecule Hoechst 33342.

The nature of another data set: in vitro. The settings on record: bmg-1 cells.
Data set [1] has as its system BMG-1 cells. In words: cells. To be noted: Homo sapiens.
Description: (§2) The cytotoxic effect of DMA and TBZ on exponentially growing tumor cells BMG-1 was studied as a function of time. Cells were treated for 1 h with the ligands and allowed to grow for 24, 48 and 72 hours. The MTT assay was performed at the specified time points. […] These experiments were done thrice in six sets. Exponentially growing cells were used in these experiments and cell survival was studied using Macrocolony assay.
(§3) Cells were washed with HBSS and harvested using 0.05% trypsin. […] Colonies were fixed in methanol and stained with 1% crystal violet. Proliferation Kinetics BMG-1 cells were seeded at 7000-8000 cells/ cm^2, and their proliferation kinetics was measured at 24-h intervals by trypsinizinig and counting total cells per flask using a hemocytometer.
Data set [2] has as its system BMG-1 cells.
Description: as §2, §3
Another data set deals with Hek cells. Briefly: Macrocolony assay (cell survival assay) with 5 Gy irradiation. The data set is classed as cell-based, human. To be noted: 10uM drug added 1h before irradiation; for viability at 10 µM: Homo sapiens, HEK293, light or radiation study, read-out: Survival friction. On the procedure: Both cell lines in triplicate were washed with HBSS, plated and grown for four days before harvesting using 0.05% trypsin, Depending on the treatments, 200 to 1200 cells were plated in 90 mm petri dishes and incubated at 37°C in 5% CO2 humidified atmosphere for 8 to 10 days. Colonies were fixed with methanol and stained with 1 % crystal violet Colonies containing more than 50 cells were counted.
Exponentially growing cells, 24 h after plating were irradiated at room temperature in growth medium with a Co-60 source (Gamma cell, AECL, Canada) at a dose rate of 0.5 to 1.2 Gy/min. Concentration of 10µm drug was added 1h before irradiation. Following this procedure, cells were grown for various time intervals to study growth kinetics and plated for Macrocolony assay as shown in the following Tables 3 & 4 and figure 1 & 2 Table 3

The test system of data set [3] is human brain malignant glioma cell line BMG-1. In words: MTT microtiter plate tetrazolium cytotoxicity assay. To be noted: cells treated 1 h. The data set is classed as cell-based. The protocol:
as §1
The cytotoxicity was determined using the MTT microtiter plate tetrazolium cytotoxicity assay (MTA). The human brain malignant glioma cell line BMG-1 was used. The cytotoxicity assay was performed using 96-well microtiter plates. 3000 cells/ well were plated and treatment of the ligands was done 24 hours post plating. […] 150 µl of DMSO was added and the plate was read at 540 nm with reference at 630 nm.

For data set [4], the system named is BMG-1 cells. Briefly: Proliferation kinetics (growth kinetics). Type of data set: cell-based, human. The settings on record: 100µM, exponentially growing cells. The protocol:
The cytotoxic effect of DMA and TBZ on exponentially growing tumor cells BMG-1 was studied as a function of time. Cells were treated for 1 h with the ligands and allowed to grow for 24, 48 and 72 hours. The MTT assay was performed at the specified time points. […] There seemed to be no effect on the metabolic status of the treated cells. However, strikingly the metabolic activity of the treated cells seemed to be enhanced as compared to the untreated control cells. To further support our results we have performed cell survival assay at 0.1uM, 10uM and 100uM concentration of drug having control as untreated cell. These experiments were done thrice in six sets. Exponentially growing cells were used in these experiments and cell survival was studied using Macrocolony assay. The plating efficiency was nearly 77%. […] The increase in cell number as a function of time for the control as well as the treated cells remained same. […] The spectroscopic studies done included UV-Vis sepctroscopy, Fluorescence spectroscopy, Anisotropy measurements and Lifetime measurements and Thermal denaturation studies. […]
Cells were washed with HBSS and harvested using 0.05% trypsin. […] Proliferation Kinetics BMG-1 cells were seeded at 7000-8000 cells/ cm^2, and their proliferation kinetics was measured at 24-h intervals by trypsinizinig and counting total cells per flask using a hemocytometer. […]

[5] abbreviates: Ratio [ligand]/[DNA] 0.01, Dose 0 Gy.
The mark [6] stands for this setting: Ratio [ligand]/[DNA] 0.01, Dose 100 Gy.
[7] abbreviates: Ratio [ligand]/[DNA] 0.1, Dose 0 Gy.
Where [8] appears, read: Ratio [ligand]/[DNA] 0.1, Dose 100 Gy.
The mark [9] stands for this setting: light or radiation study, read-out: Survival fraction, Table 3: BMG-1, 5 Gy irradiation, 10uM drug added 1h before irradiation.
The mark [10] stands for this setting: Table 3: BMG-1, 5 Gy irradiation, 10uM drug added 1h before irradiation.
[11] abbreviates: light or radiation study, read-out: Survival fraction, 1uM, no irradiation.
[12] abbreviates: light or radiation study, read-out: Survival fraction, 10uM, no irradiation.
Where [13] appears, read: light or radiation study, read-out: Survival fraction, 100uM, no irradiation.
Where [14] appears, read: read-out: Survival fraction, 1uM + 5 Gy.
The mark [15] stands for this setting: read-out: Survival fraction, 10uM + 2Gy.
Setting [16] is: read-out: Survival fraction, 10uM + 5 Gy (Table 2).
[17] abbreviates: read-out: Survival fraction, 10uM + 10 Gy.
[18] abbreviates: read-out: Survival fraction, 100uM + 5 Gy.

Description for in vitro: as §2, §3

Take `CN1CCN(c2ccc3nc(-c4ccc5nc(-c6ccc(O)cc6)[nH]c5c4)[nH]c3c2)CC1` [Hoechst 33258, reference compound]: the Tm with Calf thymus DNA (setting [5]) was 71.5 °C; in the data set with Calf thymus DNA (setting [6]) it was 67.5 °C; in the data set on Calf thymus DNA (setting [7]), 81.7 °C; with Calf thymus DNA (setting [8]), 79.3 °C.
Regarding `CCOc1ccc(-c2nc3ccc(-c4nc5ccc(N6CCN(C)CC6)cc5[nH]4)cc3[nH]2)cc1` [Hoechst 33342, reference compound], the viability at 100 µM in the data set “in vitro” (cell survival, 100µM, no irradiation) was determined as 10%. For the same compound, the viability at 10 µM came to 45% in “in vitro” (surviving fraction, 10µM, no irradiation); 10% in the data set with BMG-1 cells [1] (setting [9]); 10% with Hek cells. In addition, the Plating efficiency % with BMG-1 cells [2] (setting [10]) and with Hek cells was 20% each time. For the same compound, the “effect on cell survival” value in the data set on BMG-1 cells [2] (low concentrations, no irradiation) was “do not seem to have considerable effect on cell survival”. For the same compound, the cytotoxicity result in data set [3] (10µM, MTT at 24, 48 and 72 hours) is on record as “highly cytotoxic”.
Take `COc1cc(-c2nc3cc(-c4nc5cc(-c6nc7cc(N8CCN(C)CC8)ccc7[nH]6)ccc5[nH]4)ccc3[nH]2)ccc1O` [TBZ, 5-(4-methylpiperazine-1-yl)-2-[2'-{2"-(4-hydroxy-3-methoxyphenyl)-5"-benzimidazolyl}-5'-benzimidazolyl]benzimidazole]: the cytotoxicity at 100 µM in “in vitro” was determined as 9%. In addition, the viability at 100 µM in “in vitro” turned out to be 92%; in the data set with BMG-1 cells [1] (setting [13]) it was 102%; in the data set on BMG-1 cells [1] (setting [18]), 26%. The Tm in the data set with Calf thymus DNA (setting [5]) was 74.3 °C; with Calf thymus DNA (setting [6]) it was 75 °C; with Calf thymus DNA (setting [7]), 77.7 °C; with Calf thymus DNA (setting [8]), 81.5 °C. For the same compound, the viability at 1 µM with BMG-1 cells [1] (setting [11]) is 107%; in the data set on BMG-1 cells [1] (setting [14]), 31%. For the same compound, the viability at 10 µM with BMG-1 cells [1] (setting [12]) is 105%; in the data set with BMG-1 cells [1] (setting [9]) it was 30%; in the data set with BMG-1 cells [1] (setting [15]) it was 89%; in the data set on BMG-1 cells [1] (setting [16]), 30%; in the data set with BMG-1 cells [1] (setting [17]), 5%; with Hek cells, 48%. Also, the Plating efficiency % was determined as 21% in the data set with BMG-1 cells [2] (1uM + 5 Gy); 73% in the data set with BMG-1 cells [2] (1uM, no irradiation); 60% in the data set with BMG-1 cells [2] (10uM + 2Gy); 20% in the data set on BMG-1 cells [2] (10uM + 5 Gy (Table 2)); 3.5% in the data set on BMG-1 cells [2] (10uM + 10 Gy); 71% in the data set with BMG-1 cells [2] (10uM, no irradiation). Also, the Plating efficiency % in the data set with BMG-1 cells [2] (100uM + 5 Gy) came out at 18%; in the data set with BMG-1 cells [2] (100uM, no irradiation), 69%; with BMG-1 cells [2] (setting [10]) it was 20%; with Hek cells, 25%. The effect on growth entry in the data set with BMG-1 cells [2] (10µM, no irradiation) is “increase in growth”; in the data set with BMG-1 cells [2] (low concentrations (upto 10µM), no irradiation), “slight stimulatory effect on growth”. Further, the “radioprotection in comparison to Hoechst 33342” value in the data set on BMG-1 cells [2] (conclusion from BMG-1 and Hek cell lines) is reported as “better radioprotectors”. Moreover, the “growth kinetics of the treated cells” value with BMG-1 cells [4] is recorded as “did not differ from the untreated cells”. Also, the cytotoxicity entry in data set [3] (100µM, MTT up to 72 hours) was “do not show any cytotoxicity”.
The compound `COc1ccc(-c2nc3cc(-c4nc5cc(N6CCN(C)CC6)ccc5[nH]4)ccc3[nH]2)cc1OC` [DMA, 5-(4-methylpiperazin-1-yl)-2-[2'-(3,4-dimethoxyphenyl)-5'-benzimidazolyl]benzimidazole] gave a cytotoxicity at 10 µM in “in vitro” of 3%. Further, the viability at 100 µM in “in vitro” was found to be 73%; in the data set with BMG-1 cells [1] (setting [13]), 95%; with BMG-1 cells [1] (setting [18]) it was 38%. Also, the viability at 1 µM in the data set with BMG-1 cells [1] (setting [11]) was found to be 97%; in the data set with BMG-1 cells [1] (setting [14]), 32%. Moreover, the viability at 10 µM with BMG-1 cells [1] (setting [12]) amounted to 100%; in the data set on BMG-1 cells [1] (setting [9]), 40%; with BMG-1 cells [1] (setting [15]) it was 93%; in the data set on BMG-1 cells [1] (setting [16]), 40%; with BMG-1 cells [1] (setting [17]), 6%; in the data set with Hek cells it was 50%. Moreover, the Plating efficiency % is 22% in the data set with BMG-1 cells [2] (1uM + 5 Gy); 65% in the data set on BMG-1 cells [2] (1uM, no irradiation); 63% in the data set on BMG-1 cells [2] (10uM + 2Gy); 27% in the data set on BMG-1 cells [2] (10uM + 5 Gy (Table 2)); 4% with BMG-1 cells [2] (10uM + 10 Gy); 67% in the data set on BMG-1 cells [2] (10uM, no irradiation). Moreover, the Plating efficiency % with BMG-1 cells [2] (100uM + 5 Gy) is on record as 25%; with BMG-1 cells [2] (100uM, no irradiation), 64%; in the data set with BMG-1 cells [2] (setting [10]), 27%; with Hek cells it was 27%. For the same compound, the cytotoxicity entry in data set [3] (100µM, MTT up to 72 hours) is recorded as “do not show any cytotoxicity”.
